Assay results published in ChEMBL document CHEMBL1149626, “Aza analogues of equol: novel ligands for estrogen receptor beta” (Bioorg Med Chem, 2007).
Activity calls are given as the source filed them. No cut-off for these calls is given here.

Legend:
[1] = target: T1, Estrogen receptor (Homo sapiens, UniProt P03372)
T1 sequence (P03372 whole entry): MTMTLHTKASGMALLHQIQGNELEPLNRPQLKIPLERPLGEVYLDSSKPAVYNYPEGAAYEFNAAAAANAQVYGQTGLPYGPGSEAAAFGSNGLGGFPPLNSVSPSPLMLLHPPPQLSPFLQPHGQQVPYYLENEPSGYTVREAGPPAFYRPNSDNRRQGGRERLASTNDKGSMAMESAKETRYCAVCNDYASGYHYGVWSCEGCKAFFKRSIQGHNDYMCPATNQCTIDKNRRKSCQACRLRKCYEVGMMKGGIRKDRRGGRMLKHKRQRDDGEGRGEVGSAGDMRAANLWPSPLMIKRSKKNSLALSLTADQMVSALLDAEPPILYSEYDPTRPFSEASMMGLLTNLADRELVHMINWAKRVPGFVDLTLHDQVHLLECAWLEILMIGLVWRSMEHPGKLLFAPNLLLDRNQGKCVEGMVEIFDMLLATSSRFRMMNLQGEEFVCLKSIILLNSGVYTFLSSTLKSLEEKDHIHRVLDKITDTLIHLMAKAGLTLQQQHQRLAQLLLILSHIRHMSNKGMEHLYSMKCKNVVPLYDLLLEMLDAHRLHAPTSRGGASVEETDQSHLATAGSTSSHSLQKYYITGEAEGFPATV
Description: (§1) Displacement of [3H]17beta-estradiol from recombinant human ERalpha

[2] = tested on: Mus musculus; assay: Effect on uterine wet weight in ovariectomized kunming mouse at 4 umol/kg, sc qd for 4 weeks; type: functional
[3] = target: T2, Estrogen receptor beta (Homo sapiens, UniProt Q92731)
T2 sequence (Q92731 whole entry): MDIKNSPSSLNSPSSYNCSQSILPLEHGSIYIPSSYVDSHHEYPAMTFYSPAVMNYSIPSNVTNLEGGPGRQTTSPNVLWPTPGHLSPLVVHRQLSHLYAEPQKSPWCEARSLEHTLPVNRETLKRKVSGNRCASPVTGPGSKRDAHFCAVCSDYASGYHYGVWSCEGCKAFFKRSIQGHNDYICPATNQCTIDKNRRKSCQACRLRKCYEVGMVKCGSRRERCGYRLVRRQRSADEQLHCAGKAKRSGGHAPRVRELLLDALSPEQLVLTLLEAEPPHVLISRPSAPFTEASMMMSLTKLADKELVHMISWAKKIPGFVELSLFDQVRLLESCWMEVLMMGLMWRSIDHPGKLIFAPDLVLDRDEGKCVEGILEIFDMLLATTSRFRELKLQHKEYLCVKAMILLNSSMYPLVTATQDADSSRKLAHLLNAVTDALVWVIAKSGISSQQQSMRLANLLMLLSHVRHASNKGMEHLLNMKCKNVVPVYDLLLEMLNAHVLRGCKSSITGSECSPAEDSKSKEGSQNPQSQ
Description: Displacement of [3H]17beta-estradiol from recombinant human ERbeta

[4] = tested on: Mus musculus; assay: Effect on bone mineral density in ovariectomized kunming mouse at 4 umol/kg, sc qd for 4 weeks; type: functional
[5] = species: Homo sapiens; assay: Selectivity for human ERbeta over human ERalpha
[6] = target: T1, Estrogen receptor; assay: Agonist activity at human ERalpha expressed in yeast AH109 by yeast two hybrid assay; type: functional
[7] = target: T2, Estrogen receptor beta; assay: Agonist activity at human ERbeta expressed in yeast AH109 by yeast two hybrid assay; type: functional
[8] = species: Homo sapiens; assay: Selectivity ratio of EC50 for human ERalpha to EC50 for human ERbeta
[9] = target: T3, Estrogen receptor (Homo sapiens) (UniProt P03372)
T3 sequence (whole entry): T1 sequence (P03372 whole entry)
Description: as §1

[10] = target: T1, Estrogen receptor; assay: Antagonist activity at ERalpha expressed in yeast AH109 assessed as inhibition of 17-beta-estradiol induced alpha-galactosidase activity; type: functional

CS(=O)(=O)N1CC(c2ccc(O)cc2)Cc2ccc(O)cc21 (stereo not drawn) gave an IC50 [1] of 32100 nM, an Activity [2] of 32.5 mg and an IC50 [3] of 520 nM. It also gave an Activity [4] of 475 mg/cm3 and a Ratio IC50 [5] of 61.5.

In the case of O=CN1CC(c2ccc(O)cc2)Cc2ccc(O)cc21 (stereo not drawn), the Activity [2] is reported as 36.4 mg and the Activity [4] is reported as 463 mg/cm3.

With Oc1ccc(C2CNc3cc(O)ccc3C2)cc1 (stereo not drawn) the EC50 [6] was > 100000 nM and the EC50 [7] was 9700 nM.

O=C(c1ccc(OCCN2CCCCC2)cc1)c1c(-c2ccc(O)cc2)sc2cc(O)ccc12 [RALOXIFENE] gave an Activity [2] of 69.5 mg and an Activity [4] of 608 mg/cm3.

CCN1CC(c2ccc(O)cc2)Cc2ccc(O)cc21 (stereo not drawn) gave an IC50 [1] of 1410 nM, an EC50 [6] of 24300 nM and an Activity [2] of 31.7 mg. The Ratio EC50 [8] was 41, the IC50 [3] was 83 nM and the Activity [4] was 454 mg/cm3. For the same compound, the EC50 [7] was 580 nM and the Ratio IC50 [5] was 17.

Oc1ccc(C2Cc3ccc(O)cc3NC2=S)cc1 (stereo not drawn) was tested, and the Activity [2] was 38.7 mg, the IC50 [3] was 4900 nM and the Activity [4] was 483 mg/cm3. The Activity [9] was “inactive”.

CC(=O)N1CC(c2ccc(O)cc2)Cc2ccc(O)cc21 (stereo not drawn) gave an Activity [2] of 29.1 mg and an Activity [4] of 451 mg/cm3.

For Oc1ccc(-c2cnc3cc(O)ccc3c2)cc1, the EC50 [6] was > 100000 nM, the Activity [2] was 33.1 mg and the Activity [4] was 430 mg/cm3. The EC50 [7] was 37500 nM.

With CN1CC(c2ccc(O)cc2)Cc2ccc(O)cc21 (stereo not drawn) the IC50 [1] was 2950 nM, the EC50 [6] was 15200 nM and the Activity [2] was 31.8 mg. For the same compound, the Ratio EC50 [8] was 50, the IC50 [3] was 220 nM and the Activity [4] was 455 mg/cm3. For the same compound, the EC50 [7] was 300 nM and the Ratio IC50 [5] was 13.3.

CCCN1CC(c2ccc(O)cc2)Cc2ccc(O)cc21 (stereo not drawn) showed an IC50 [1] of 2470 nM, an Activity [2] of 28.3 mg and an IC50 [3] of 140 nM. For the same compound, the Activity [4] was 439 mg/cm3, the EC50 [7] was 4750 nM and the IC50 [10] was 2650 nM. For the same compound, the Ratio IC50 [5] was 17.9.

For O=C(C1CC1)N1CC(c2ccc(O)cc2)Cc2ccc(O)cc21 (stereo not drawn), the IC50 [3] was 2950 nM and the Activity [9] was “inactive”.

In the case of Oc1ccc(C2Cc3ccc(O)cc3N(CC3CC3)C2)cc1 (stereo not drawn), the IC50 [1] is reported as 1630 nM, the Activity [2] is reported as 30.8 mg and the IC50 [3] is reported as 230 nM. It also gave an Activity [4] of 461 mg/cm3, an EC50 [7] of 6890 nM and an IC50 [10] of 5570 nM. It also gave a Ratio IC50 [5] of 7.1.
